Tests used:
[1] = molecular target: T1, Peroxisome proliferator-activated receptor gamma (Homo sapiens, UniProt P37231); test: Agonist activity at human Gal4 fused PPARgamma LBD expressed in COS-7 cells incubated for 24 hrs by firefly luciferase reporter gene assay; assay type: cell-based
T1 sequence (P37231 whole entry): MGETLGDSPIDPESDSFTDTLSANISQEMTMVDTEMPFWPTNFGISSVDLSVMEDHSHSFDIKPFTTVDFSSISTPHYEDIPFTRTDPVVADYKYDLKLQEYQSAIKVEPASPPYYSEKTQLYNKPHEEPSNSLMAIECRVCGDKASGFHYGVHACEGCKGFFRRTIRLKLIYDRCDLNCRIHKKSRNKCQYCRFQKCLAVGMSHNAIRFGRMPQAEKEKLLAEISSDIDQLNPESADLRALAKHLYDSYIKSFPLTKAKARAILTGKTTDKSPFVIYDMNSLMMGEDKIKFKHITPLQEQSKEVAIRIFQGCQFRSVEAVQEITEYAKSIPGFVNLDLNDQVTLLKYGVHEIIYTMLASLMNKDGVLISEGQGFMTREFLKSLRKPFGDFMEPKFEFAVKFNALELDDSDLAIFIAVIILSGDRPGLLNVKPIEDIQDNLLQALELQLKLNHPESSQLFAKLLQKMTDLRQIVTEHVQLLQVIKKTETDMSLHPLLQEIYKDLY

[2] = Hepatotoxicity in STZ-induced Sprague-Dawley rat diabetic kidney disease model assessed as serum ALT level at 25 to 50 mg/kg, po administered twice a day for 6 weeks; assay type: toxicity, organism-based; details: in vivo, 1008 h, dose 25-50 mg/kg
[3] = Hepatotoxicity in STZ-induced Sprague-Dawley rat diabetic kidney disease model assessed as serum AST level at 25 to 50 mg/kg, po administered twice a day for 6 weeks; assay type: toxicity, organism-based; details: in vivo, 1008 h, dose 25-50 mg/kg
[4] = Cytotoxicity against human GMCs assessed as reduction in cell viability at 1 to 30 uM after 48 hrs by CCK-8 assay; assay type: tissue-based; details: glomerular mesangial cell, dose 1-30 µM
THP-1 = test: Cytotoxicity against human THP-1 assessed as reduction in cell viability at 1 to 30 uM after 48 hrs by CCK-8 assay; assay type: cell-based; details: thp-1, 48 h, dose 1-30 µM
[5] = molecular target: T2, Peroxisome proliferator-activated receptor alpha (Homo sapiens, UniProt Q07869); test: Agonist activity at human Gal4 fused PPARalpha LBD expressed in COS-7 cells incubated for 24 hrs by firefly luciferase reporter gene assay; assay type: cell-based
T2 sequence (Q07869 whole entry): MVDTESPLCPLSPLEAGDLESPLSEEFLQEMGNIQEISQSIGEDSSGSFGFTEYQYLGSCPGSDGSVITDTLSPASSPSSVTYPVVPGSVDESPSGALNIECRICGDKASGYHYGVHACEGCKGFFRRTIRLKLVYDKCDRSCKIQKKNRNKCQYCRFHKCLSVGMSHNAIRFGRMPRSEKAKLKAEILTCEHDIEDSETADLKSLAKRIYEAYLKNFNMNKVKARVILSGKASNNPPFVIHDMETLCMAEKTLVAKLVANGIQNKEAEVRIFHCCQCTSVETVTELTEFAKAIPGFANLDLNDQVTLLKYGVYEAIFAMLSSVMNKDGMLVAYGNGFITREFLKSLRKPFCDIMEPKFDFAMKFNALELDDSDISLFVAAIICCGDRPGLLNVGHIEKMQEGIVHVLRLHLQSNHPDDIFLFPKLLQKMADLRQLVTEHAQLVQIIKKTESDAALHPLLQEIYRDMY

[6] = molecular target: T3, Peroxisome proliferator-activated receptor delta (Homo sapiens, UniProt Q03181); test: Agonist activity at human Gal4 fused PPARdelta LBD expressed in COS-7 cells incubated for 24 hrs by firefly luciferase reporter gene assay; assay type: cell-based
T3 sequence (Q03181 whole entry): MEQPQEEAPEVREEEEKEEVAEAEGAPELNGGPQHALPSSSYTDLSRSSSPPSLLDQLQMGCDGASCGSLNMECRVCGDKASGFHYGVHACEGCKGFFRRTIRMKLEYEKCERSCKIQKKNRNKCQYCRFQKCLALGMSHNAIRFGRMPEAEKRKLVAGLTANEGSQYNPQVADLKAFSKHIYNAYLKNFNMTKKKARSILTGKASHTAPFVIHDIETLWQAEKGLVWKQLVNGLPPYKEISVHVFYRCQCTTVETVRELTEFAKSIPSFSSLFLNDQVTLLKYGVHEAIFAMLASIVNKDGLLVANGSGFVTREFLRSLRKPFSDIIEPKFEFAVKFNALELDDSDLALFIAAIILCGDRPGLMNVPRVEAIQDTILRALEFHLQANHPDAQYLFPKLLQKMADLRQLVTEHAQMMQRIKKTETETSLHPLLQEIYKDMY

Cc1cc(COc2ccc3c(c2)O/C(=C\c2ccccc2)C3=O)cc(C)c1OC(C)(C)C(=O)O
EC50 [1]: > 10 µM

Cc1cc(COc2ccc3c(c2)O/C(=C\c2ccc(C(F)(F)F)cc2)C3=O)cc(C)c1OC(C)(C)C(=O)O
Activity [2]: Non-Toxic | Activity [3]: Non-Toxic | Activity [4]: Non-Toxic | Activity (THP-1): Non-Toxic

Cc1cc(COc2ccc3c(c2)O/C(=C\c2ccc(C#N)cc2)C3=O)cc(C)c1OC(C)(C)C(=O)O
EC50 [1]: > 10 µM

Cc1cc(COc2ccc3c(c2)O/C(=C\c2ccc4ccccc4c2)C3=O)cc(C)c1OC(C)(C)C(=O)O
EC50 [1]: > 10 µM

Cc1cc(COc2ccc3c(c2)O/C(=C\c2ccc(Cl)cc2)C3=O)cc(C)c1OC(C)(C)C(=O)O
EC50 [1]: > 10 µM

Cc1cc(COc2ccc3c(c2)O/C(=C\c2ccc(Br)cc2)C3=O)cc(C)c1OC(C)(C)C(=O)O
EC50 [1]: > 10 µM

CCOc1ccc(/C=C2\Oc3cc(OCc4cc(C)c(OC(C)(C)C(=O)O)c(C)c4)ccc3C2=O)cc1
EC50 [1]: > 10 µM | EC50 [5]: > 10 µM

Cc1cc(COc2ccc3c(c2)O/C(=C\c2ccccc2C(F)(F)F)C3=O)cc(C)c1OC(C)(C)C(=O)O
EC50 [1]: > 10 µM

COc1ccc(/C=C2\Oc3cc(OCc4cc(C)c(OC(C)(C)C(=O)O)c(C)c4)ccc3C2=O)cc1
EC50 [1]: > 10 µM | EC50 [5]: > 10 µM

Cc1cc(COc2ccc3c(c2)O/C(=C\c2ccc(C(C)C)cc2)C3=O)cc(C)c1OC(C)(C)C(=O)O
EC50 [1]: > 10 µM

Cc1cc(COc2ccc3c(c2)O/C(=C\c2ccc(F)cc2)C3=O)cc(C)c1OC(C)(C)C(=O)O
EC50 [6]: > 10 µM | EC50 [1]: > 10 µM | EC50 [5]: > 10 µM

CSc1ccc(C(=O)/C=C/c2cc(C)c(OC(C)(C)C(=O)O)c(C)c2)cc1 [ELAFIBRANOR]
EC50 [1]: 2.79 µM | EC50 [5]: 0.76 µM

Cc1ccc(/C=C2\Oc3cc(OCc4cc(C)c(OC(C)(C)C(=O)O)c(C)c4)ccc3C2=O)cc1
EC50 [1]: > 10 µM
